Experimental data: ChEMBL document CHEMBL3045921, “Synthesis and Acaricidal Activity of Pyrazole-5-carboxamide Derivatives” (1991)
Converted amounts (≈) assume the structure as drawn.

Experiments:
Type in all cases: functional
Tetranychus urticae [1] = test: Adulticidal activity against Tetranychus urticae (two-spotted spider mite) in kidney bean leaf assessed as mortality at 25 degC measured after 2 days; conditions: 48 h
Panonychus citri [2] = test: Adulticidal activity against Panonychus citri in mandarin orange leaf assessed as mortality at 25 degC measured after 2 days; conditions: 48 h
Panonychus citri [3] = test: Ovicidal activity against Panonychus citri in mandarin orange leaf assessed as egg mortality at 25 degC measured after 7 days; conditions: 168 h
Tetranychus urticae [4] = test: Ovicidal activity against Tetranychus urticae (two-spotted spider mite) in kidney bean leaf assessed as egg mortality at 25 degC measured after 7 days; conditions: 168 h
Tetranychus urticae [5] = test: Acaricidal activity against Tetranychus urticae (two-spotted spider mite) in kidney bean leaf assessed as mortality at 3.1 ppm at 25 degC measured after 5 days; conditions: 120 h
Tetranychus urticae [6] = test: Acaricidal activity against Tetranychus urticae (two-spotted spider mite) in kidney bean leaf assessed as mortality at 50 ppm at 25 degC measured after 5 days; conditions: 120 h
Tetranychus urticae [7] = test: Acaricidal activity against Tetranychus urticae (two-spotted spider mite) in kidney bean leaf assessed as mortality at 200 ppm at 25 degC measured after 5 days; conditions: 120 h
Tetranychus urticae [8] = test: Acaricidal activity against Tetranychus urticae (two-spotted spider mite) in kidney bean leaf assessed as mortality at 500 ppm at 25 degC measured after 5 days; conditions: 120 h
Tetranychus urticae [9] = test: Acaricidal activity against Tetranychus urticae (two-spotted spider mite) in kidney bean leaf assessed as mortality at 12.5 ppm at 25 degC measured after 5 days; conditions: 120 h

| SMILES | LC50 (Tetranychus urticae [1]) [µg/mL] | LC50 (Panonychus citri [2]) [µg/mL] | LC50 (Panonychus citri [3]) [µg/mL] | LC50 (Tetranychus urticae [4]) [µg/mL] | mortality at 3.1 ppm (Tetranychus urticae [5]) [%] | mortality at 50 ppm (Tetranychus urticae [6]) [%] | mortality at 200 ppm (Tetranychus urticae [7]) [%] | mortality at 500 ppm (Tetranychus urticae [8]) [%] | mortality at 12.5 ppm (Tetranychus urticae [9]) [%] |
| --- | --- | --- | --- | --- | --- | --- | --- | --- | --- |
| CCc1nn(C)c(C(=O)NCc2ccc(C(C)(C)C)cc2)c1Br | 7.1 (≈ 18.8 µM) | 0.59 (≈ 1.56 µM) | 10 (≈ 26.4 µM) | 1.4 (≈ 3.7 µM) |  |  |  |  |  |
| Cc1nn(C)c(C(=O)NCc2ccc(C(C)(C)C)cc2)c1Cl | 7.7 (≈ 24.1 µM) | 3.1 (≈ 9.69 µM) | 9.9 (≈ 31 µM) | 2.4 (≈ 7.5 µM) | 30 | 100 | 100 | 100 | 100 |
| CCc1nn(C)c(C(=O)NCc2ccc(C(C)(C)C)cc2)c1Cl [TEBUFENPYRAD] | 3.7 (≈ 11.1 µM) | 0.5 (≈ 1.5 µM) | 3.9 (≈ 11.7 µM) | 0.96 (≈ 2.88 µM) | 100 | 100 | 100 | 100 | 100 |
| Cn1nc(C2CC2)c(Cl)c1C(=O)NCc1ccc(C(C)(C)C)cc1 |  |  |  |  | 0 | 0 | 0 | 30 | 0 |
| CC(C)c1nn(C)c(C(=O)NCc2ccc(C(C)(C)C)cc2)c1Cl |  |  |  |  | 0 | 100 | 100 | 100 | 30 |
| COc1c(C)nn(C)c1C(=O)NCc1ccc(C(C)(C)C)cc1 |  |  |  |  | 0 | 100 | 100 | 100 | 100 |
| CCCCc1nn(C)c(C(=O)NCc2ccc(C(C)(C)C)cc2)c1Cl |  |  |  |  | 0 | 0 | 0 | 0 | 0 |
| Cc1nn(C)c(C(=O)NCc2ccc(C(C)(C)C)cc2)c1C | 7.5 (≈ 25 µM) | 6.1 (≈ 20.4 µM) | 36 (≈ 120 µM) | 8.8 (≈ 29.4 µM) | 0 | 100 | 100 | 100 | 100 |
| Cc1nn(C)c(C(=O)NCc2ccc(C(C)(C)C)cc2)c1C#N |  |  |  |  | 0 | 0 | 0 | 0 | 0 |
| Cc1nn(C)c(C(=O)NCc2ccc(C(C)(C)C)cc2)c1N |  |  |  |  | 0 | 0 | 0 | 0 | 0 |
| CCc1nn(C)c(C(=O)NCc2ccccc2)c1Cl |  |  |  |  | 0 | 0 | 0 | 0 | 0 |
| CCOc1c(C)nn(C)c1C(=O)NCc1ccc(C(C)(C)C)cc1 |  |  |  |  | 0 | 0 | 100 | 100 | 0 |
| Cc1nn(C)c(C(=O)NCc2ccc(C(C)(C)C)cc2)c1Br | 9.8 (≈ 26.9 µM) | 4 (≈ 11 µM) | 17 (≈ 46.7 µM) | 3 (≈ 8.24 µM) | 0 | 100 | 100 | 100 | 30 |
| CCc1nn(C)c(C(=O)NCc2ccc(C(C)C)cc2)c1Cl |  |  |  |  | 0 | 100 | 100 | 100 | 30 |
| CCCCCCCCc1ccc(CNC(=O)c2c(Cl)c(CC)nn2C)cc1 |  |  |  |  | 0 | 30 | 80 | 100 | 0 |
| CCc1ccc(CNC(=O)c2c(Cl)c(CC)nn2C)cc1 |  |  |  |  | 0 | 0 | 0 | 30 | 0 |
| CCCCCCc1ccc(CNC(=O)c2c(Cl)c(CC)nn2C)cc1 |  |  |  |  | 0 | 30 | 80 | 100 | 0 |
